For assay [1], the system named is IL-6R/JAK1/2/Stat3 pathway. Put plainly: IL6 CellSensor beta-lactamase reporter assay (SIE-bla ME-180 cells). Format: cell-based. To be noted: Homo sapiens; SIE-bla ME-180 cells, IL6 at EC80; read-out: IL-6 IP. An excerpt: (§1) Inhibition of the activity of JAK kinases (JAK1, JAK2, JAK3 and TYK2) in intact cells was quantified in antagonist mode using CellSensor® transcriptional reporter technology (Life Technologies/ThermoFisher Scientific Inc., Waltham, Mass., USA; https://www.thermofisher.com/us/en/home/industrial/pharma-biopharma drug-discovery-development/target-and-lead-identification-and-validation/pathway-biology/cellular-pathway-analysis/cellsensor-cell-lines.html), in three independent cell lines engineered to detect IL4, IL6 and EPO signaling. In brief, CellSensor® cell lines (see details below for each assay) carrying a stably integrated β-Lactamase reporter gene under control of specific cis-regulatory STAT elements responsive to the pathway being monitored were pre-treated with test compounds serially diluted in DMSO (see preparation and dosing of compounds and agonist cytokines section).
(§2) Incubation with compounds, cytokines and LiveBLAzer™ were carried out at 37° C. in a tissue culture incubator maintained at 90% humidity and 5% CO2.
Interleukin 6 (IL6)—JAK1/JAK2—STAT4 Pathway
CellSensor™ SIE-bla ME-180 cells carrying a stably integrated β-Lactamase reporter gene under control of the Sis-Inducible Element (SIE).
(§3) Each CellSensor® cell line was subsequently plated as per supplier's instructions (30,000 cells in 32 μL/well) and mixed with the compound. Following a 60 minute incubation, cells were subsequently stimulated by addition of 8 μL of cognate cytokine (EC80 dose of IL4, IL6 and EPO) and incubated for an additional 3 hours, before adding LiveBLAzer™-FRET B/G substrate.
(§4) The IL-6 assay identifies agents that inhibit the beta-lactamase reporter activity initiated through stimulation of the IL-6R/JAK1/2/Stat3 pathway with recombinant human IL-6. The EPO assay identifies agents that inhibit the beta-lactamase reporter activity initiated through stimulation of the EPO/Jak2/Stat5 pathway with human EPO. Inhibition of EPO signaling leads to an inability to recover from anemia of chronic disease. […] That is, it is desirable for the EPO/IL-6 IC50 ratios to be a relatively large number.
On the technique in general: A reporter such as luciferase makes a cellular process visible.

For the next assay, the system named is EPO/Jak2/Stat5 pathway. The assay can be described thus: EPO CellSensor beta-lactamase reporter assay (irf1-bla TF-1 cells). To be noted: for IC50: Homo sapiens, irf1-bla TF-1 cells, EPO at EC80, read-out: EPO IP; for EPO/IL-6: ratio EPO IP / IL-6 IP. Format: cell-based, human.
Text: as §1, §2
Erythropoietin (EPO)—JAK2—STAT5 Pathway
CellSensor irf1-bla TF-1 cells carry a stably integrated β-Lactamase reporter gene under control of the STAT5 Response Elements present in the Interferon Regulatory Factor I (IRF1) gene promoter.
as §3, §4

Another assay deals with JAK1 (Homo sapiens (Human), UniProt P23458). The assay can be described thus: JAK biochemical HTRF enzyme assay, JAK1. The note with it: HTRF, GST-tagged catalytic domain, ATP 31.8 μM. The protocol: (§5) The ability of compounds to inhibit the activity of JAK1, JAK2, JAK3, and Tyk2 was measured using a recombinant purified GST-tagged catalytic domain for each enzyme (InVitrogen/Life Technologies/ThermoFisher Scientific Inc., Waltham, Mass., USA; catalogue numbers: M4290(JAK1), M4290(JAK2), M4290(JAK3), M4290(Tyk2)) in an HTRF format biochemical assay.
(§6) Subsequent reagent additions employed an Agilent™ Bravo™ liquid handling system (Aligent Technologies, Santa Clara, Calif., USA). […] After equilibration, 2 μL of 10×ATP in 1× assay buffer was added to initiate the kinase reaction and the plates were shaken and then incubated at ambient temperature for 120 minutes. […] After normalization to untreated controls, the percent inhibition of the HTRF signal at each compound concentration was calculated. The plot of percent inhibition versus the log of compound concentration was fit with a 4-parameter dose response equation to calculate IC50 values.
(In general: Time-resolved FRET reads energy transfer from a long-lived donor to a nearby acceptor.)

A further assay has as its target JAK2 (Homo sapiens (Human), UniProt O60674). The assay can be described thus: JAK biochemical HTRF enzyme assay, JAK2. To be noted: for IC50: HTRF, GST-tagged catalytic domain, ATP 8.5 μM; for JAK2/1: ratio JAK2 IC50 / JAK1 IC50. How it is done: as §5, §6

Molecules are shown by their SMILES.

JAK1, sequence (P23458 875-1153): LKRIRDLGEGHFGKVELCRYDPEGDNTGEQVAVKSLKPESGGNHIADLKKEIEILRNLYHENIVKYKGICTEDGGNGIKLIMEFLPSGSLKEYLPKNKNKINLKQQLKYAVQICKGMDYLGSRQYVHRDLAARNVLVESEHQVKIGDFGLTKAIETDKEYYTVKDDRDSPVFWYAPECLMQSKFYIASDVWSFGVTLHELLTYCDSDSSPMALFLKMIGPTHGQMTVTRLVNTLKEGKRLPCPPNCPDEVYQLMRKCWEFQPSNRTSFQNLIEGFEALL
JAK2, sequence (O60674 849-1124): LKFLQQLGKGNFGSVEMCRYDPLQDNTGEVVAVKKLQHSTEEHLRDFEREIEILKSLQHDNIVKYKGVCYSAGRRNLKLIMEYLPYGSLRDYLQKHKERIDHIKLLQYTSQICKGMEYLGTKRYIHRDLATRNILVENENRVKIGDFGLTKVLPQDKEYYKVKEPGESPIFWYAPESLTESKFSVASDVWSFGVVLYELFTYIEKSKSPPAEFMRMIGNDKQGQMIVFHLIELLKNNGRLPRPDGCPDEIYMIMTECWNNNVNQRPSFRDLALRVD

In the case of `N#C[C@H]1CCOC[C@@H]1n1cc(C(N)=O)c(Nc2ccc(Cl)c(Cl)c2)n1` [Comp. Ex-2, reference compound], the results for the IC50 (in assay [1]; in the assay on EPO/Jak2/Stat5 pathway) were 69 nM and 2170 nM, respectively. The EPO/IL-6 in the assay on EPO/Jak2/Stat5 pathway amounted to 31.

With `COc1cc(Nc2nn([C@H]3COCC[C@@H]3C#N)cc2C(N)=O)ccc1Cl` [Ex-1, 3-((4-Chloro-3-methoxyphenyl)amino)-1-((3R,4S)-4-cyanotetrahydro-2H-pyran-3-yl)-1H-pyrazole-4-carboxamide], the IC50 stood at 0.12 nM on JAK1, 3.88 nM against JAK2, 15 nM in assay [1] and 280 nM in the assay on EPO/Jak2/Stat5 pathway. In addition, on JAK2, the JAK2/1 worked out at 32. Besides, the EPO/IL-6 with EPO/Jak2/Stat5 pathway is given as 19.

Consider `CSc1cc(Nc2nn([C@H]3COCC[C@@H]3C#N)cc2C(N)=O)ccc1Cl` [Ex-2, 3-((4-chloro-3-(methylthio)phenyl)amino)-1-((3R,4S)-4-cyanotetrahydro-2H-pyran-3-yl)-1H-pyrazole-4-carboxamide], for which the IC50 stood at 0.25 nM against JAK1, 5.48 nM at JAK2, 22 nM in assay [1] and 649 nM in the assay on EPO/Jak2/Stat5 pathway. In addition, the JAK2/1 on JAK2 was found to be 22. In addition, the EPO/IL-6 with EPO/Jak2/Stat5 pathway was 30.

For the compound `N#Cc1ccc(Nc2nn([C@H]3COCC[C@@H]3C#N)cc2C(N)=O)cc1` [Comp. Ex-4, reference compound], the IC50 in assay [1] came out at 14 nM; in the assay on EPO/Jak2/Stat5 pathway, 89 nM. In the assay on EPO/Jak2/Stat5 pathway, the EPO/IL-6 is reported as 6.

Consider `CC(C)c1cc(Nc2nn([C@H]3COCC[C@@H]3C#N)cc2C(N)=O)ccc1C#N` [Ex-4, 3-((4-cyano-3-isopropylphenyl)amino)-1-((3R,4S)-4-cyanotetrahydro-2H-pyran-3-yl)-1H-pyrazole-4-carboxamide], for which the IC50 was 0.49 nM against JAK1, 9.7 nM against JAK2, 47 nM in assay [1] and 744 nM in the assay on EPO/Jak2/Stat5 pathway. The JAK2/1 at JAK2 is 20. In the assay with EPO/Jak2/Stat5 pathway, the EPO/IL-6 was 16.

Turning to `N#C[C@H]1CCOC[C@@H]1n1cc(C(N)=O)c(Nc2ccc(Cl)cc2)n1` [Comp. Ex-1, reference compound], in the assay on EPO/Jak2/Stat5 pathway, the IC50 was found to be 132 nM and the EPO/IL-6 worked out at 9.

As to `Cc1noc2ccc(Nc3nn([C@H]4COCC[C@@H]4C#N)cc3C(N)=O)cc12` [Ex-5, 1-((3R,4S)-4-cyanotetrahydro-2H-pyran-3-yl)-3-((3-methylbenzo[d]isoxazol-5-yl)amino)-1H-pyrazole-4-carboxamide], the IC50 turned out to be 0.16 nM at JAK1, 3.04 nM against JAK2, 17 nM in assay [1] and 309 nM in the assay with EPO/Jak2/Stat5 pathway. For the same compound, the JAK2/1 on JAK2 is reported as 19. The EPO/IL-6 in the assay with EPO/Jak2/Stat5 pathway turned out to be 18.

As to `N#C[C@H]1CCOC[C@@H]1n1cc(C(N)=O)c(Nc2ccc(OC(F)(F)F)cc2)n1` [Comp. Ex-3, reference compound], the values for the IC50 (in assay [1]; with EPO/Jak2/Stat5 pathway) were 14 nM and 80 nM, respectively. For the same compound, in the assay on EPO/Jak2/Stat5 pathway, the EPO/IL-6 turned out to be 6.

On to `COc1cc(Nc2nn([C@H]3COCC[C@@H]3C#N)cc2C(N)=O)ccc1C#N` [Ex-3, 3-((4-cyano-3-methoxyphenyl)amino)-1-((3R,4S)-4-cyanotetrahydro-2H-pyran-3-yl)-1H-pyrazole-4-carboxamide], for which the IC50 against JAK1 was 0.07 nM; on JAK2, 3.28 nM; in assay [1], 19 nM; in the assay with EPO/Jak2/Stat5 pathway, 431 nM. In addition, the JAK2/1 at JAK2 turned out to be 49. In the assay on EPO/Jak2/Stat5 pathway, the EPO/IL-6 was found to be 23.

The record behind these values is US10766883B2, “Aminopyrazoles as janus kinase inhibitors” (Merck Sharp & Dohme Corp., priority 2016, dated 2020).
